In patent US20250378918A1, “Phenotype-Based Chemical Screens” (Nemametrix, priority 2015, published 2025):

Assays:
[1] = system: larval zebrafish; assay: battery of ten zebrafish behavioral assays (motion index); type: in vivo; settings: for haloperidol-like behavioral phenotype: antipsychotic drugs, FIG. 1B
Protocol: Haloperidol, a butyrophenone, is known to bind at least 20 molecular targets found in the human brain. To determine how haloperidol affects zebrafish behavior, a battery of ten behavioral assays was developed to compare behavioral profiles from control (DMSO) and haloperidol-treated animals.
A large number of fertilized eggs (up to 20,000 embryos per day) were collected from group matings of Ekkwill zebrafish. Embryos were raised in hatching jars at 28° C. on a 14/10 hour light/dark cycle until 3 days post fertilization (d.p.f.), then transferred to an incubator under the same conditions until 7 d.p.f. Groups of approximately ten larvae (7 d.p.f.) were distributed into the wells of clear flat bottom square well 96-well plates filled with E3 medium (300 μl). Larvae were then incubated at 25° C. on the bench top for one hour prior to chemical treatment and subsequent experiments. All zebrafish protocols were approved by the Institutional Animal Care and Use Committee at Massachusetts General Hospital or at Teleos Therapeutics, LLC.
The Actiprobe library (TimTec Corporation) contains 10,000 compounds dissolved in DMSO at a stock concentration of 1 mg/ml (˜3 mM). The Chembridge library (Chembridge Corporation) contains 10,000 compounds dissolved in DMSO at a stock concentration of 1 mM. The Spectrum Collection (MicroSource Discovery) contains 2,320 compounds dissolved in DMSO at a concentration of 10 mM. The Prestwick library (Prestwick Chemical) contains 1,280 approved drugs dissolved in DMSO at a stock concentration of 10 mM. The Neurotransmitter library (Biomol International; cat. No. 2810) contains 700 compounds dissolved in DMSO at a stock concentration of 10 mM. All compounds were diluted in E3 buffer and screened at 10 μM final concentration and <1% DMSO. Negative controls were treated with an equal volume of DMSO. Stock solutions were added directly to zebrafish in the wells of a 96-well plate, mixed and allowed to incubate for 1 h at room temperature before behavioral evaluation in the Behavioral Battery of assays. Reordered hit compounds were dissolved in DMSO to a stock concentration of 30 mM and added to wells as described above. Hits were retested at a concentration range of 50, 10, 5, 1, 0.5, 0.1, and 0.05 μM in triplicate; assays for retesting were run at 10-minute and 1-hour incubation time points.
Digital video were captured at 25 frames per second using an AVT Pike digital camera. High intensity LEDs were used to deliver violet (405 nm), blue (450 nm), and red (660 nm) light stimuli. Acoustic stimuli were delivered using push-style solenoids to tap the stage. Stimuli and digital recordings were applied to the entire 96-well plate simultaneously. Instrument control and data acquisition were performed using custom MATLAB scripts. Each assay, including video recording and data processing, took ˜40 s per plate per 30 s assay, enabling us to routinely screen 96 wells against a battery of ten assays in less than ten minutes. To analyze digital video recordings, a motion index was calculated by frame differencing. […] The behavioral battery was comprised of ten assays (Assay 1-10) performed in numerical order. phenoBlast ranking and statistics

[2] = system: zebrafish larvae; assay: phenoBlast query of behavioral profile database with haloperidol profile; type: in vivo; settings: screened at 10 μM; cutoff = DMSO control well most similar to haloperidol query; FIGS. 2A-2C
Protocol: To identify compounds with haloperidol-like behavioral profiles, the behaviors of zebrafish larvae in 29,760 compound-treated wells (including 4,300 known bioactive compounds, 20,000 uncharacterized novel compounds and more than 5,000 DMSO controls) were systematically quantified. Behavioral profiles from each well were compiled into a database. Then, the average profile of three haloperidol (5 μM)-treated wells was used to query the compiled database for additional compounds that cause haloperidol-like phenotypes. […] Four of the known hit compounds were antipsychotic drugs (including three butyrophenones and one tricyclic). A fifth compound, DO 897/99 has been under investigation for treatment of schizophrenia and a sixth compound, lidoflazine, is structurally related to the known antipsychotic amperozide and other antipsychotics in the diphenylbutylpiperidine class (e.g., clopimozide, fluspirilene and pimozide) (FIG. 2C).
The Actiprobe library (TimTec Corporation) contains 10,000 compounds dissolved in DMSO at a stock concentration of 1 mg/ml (˜3 mM). The Chembridge library (Chembridge Corporation) contains 10,000 compounds dissolved in DMSO at a stock concentration of 1 mM. The Spectrum Collection (MicroSource Discovery) contains 2,320 compounds dissolved in DMSO at a concentration of 10 mM. The Prestwick library (Prestwick Chemical) contains 1,280 approved drugs dissolved in DMSO at a stock concentration of 10 mM. […]
Digital video were captured at 25 frames per second using an AVT Pike digital camera. […] To analyze digital video recordings, a motion index was calculated by frame differencing. […]
For each well, the raw motion index from each assay was concatenated into a 10,500-point motion index time series. […] The haloperidol query was calculated by averaging the time series from three replicate haloperidol-treated wells. To calculate the phenoBLAST distance metric, L1 distances were calculated by: phenoBLAST Distance=sum (abs(query-well)), where ‘query’ and ‘well’ indicate their associated time series.

CSc1ccc2c(c1)N(CCC1CCCCN1C)c1ccccc1S2 (stereo not shown) [thioridazine]
haloperidol-like behavioral phenotype [1]: cause haloperidol-like behaviors

O=C(CCCN1CCC(O)(c2ccc(Cl)cc2)CC1)c1ccc(F)cc1 [haloperidol]
effect on locomotion of larval zebrafish ([1]; high concentrations (50 μM)): locomotor impairment | motion index in behavioral battery ([1]; lower concentrations (5 μM), FIG. 1A): complex pattern of increased activity

Cc1cccc(C)c1NC(=O)CN1CCN(CCCC(c2ccc(F)cc2)c2ccc(F)cc2)CC1 [lidoflazine]
phenoBlast similarity to haloperidol (5 μM) query profile, hit ranking [2]: hit compounds

O=C(CCCN1CCC(O)(c2ccc(Br)cc2)CC1)c1ccc(F)cc1 [bromperidol]
haloperidol-like behavioral phenotype [1]: cause haloperidol-like behaviors | phenoBlast similarity to haloperidol (5 μM) query profile, hit ranking [2]: top ranked hit compound

O=C(CCCN1CC=C(n2c(=O)[nH]c3ccccc32)CC1)c1ccc(F)cc1 [droperidol]
haloperidol-like behavioral phenotype [1]: cause haloperidol-like behaviors

c1ccc2c(c1)Nc1ccccc1S2 [phenothiazine]
haloperidol-like behavioral phenotype [1]: cause haloperidol-like behaviors

CN1CCN(CCCN2c3ccccc3Sc3ccc(Cl)cc32)CC1 [prochlorperazine]
haloperidol-like behavioral phenotype [1]: cause haloperidol-like behaviors

COc1ccccc1N1CCN(CCCCNC(=O)c2ccc3ccccc3c2)CC1.Cl.Cl [DO 897/99]
phenoBlast similarity to haloperidol (5 μM) query profile, hit ranking [2]: hit compounds
